In patent US20230372346A1, “TREATMENT REGIMENS FOR EXON-20 INSERTION MUTANT EGFR CANCERS” (CULLINAN PEARL CORP., priority 2020, published 2023):

Key:
[1] = tested on: Ba/F3 harboring wild type EGFR; details: cited from earlier work
[2] = tested on: cells expressing EGFR with exon 20 insertion mutations; details: cells expressing EGFR with exon 20 insertion mutations compared with cells expressing WT EGFR; cited from earlier work
[3] = tested on: KRAS mutant cell lines, NCI-H23 cells, and NCI-H460 cells; details: EGFR-independent cell growth; cited from earlier work
[4] = tested on: mutant EGFRs that possess L718Q mutation in exon 18 in combination with ex19del+T790M or L858R+T790M; details: cited from earlier work
[5] = tested on: EGFR and EGFR mutants that harbor an exon 20 insertion mutation; details: EGFR and exon 20 insertion mutants; cited from earlier work
[6] = tested on: phosphorylation of EGFR and its downstream effectors; details: cited from earlier work
[7] = tested on: mutant EGFRs that possess mutations at L792 (L792H, L792F, L792Y) in exon 20 in combination with ex19del+T790M or L858R+T790M; details: cited from earlier work
WT EGFR = WT EGFR (Homo sapiens, UniProt P00533); details: cited from earlier work
Chain of WT EGFR (P00533 25-1210): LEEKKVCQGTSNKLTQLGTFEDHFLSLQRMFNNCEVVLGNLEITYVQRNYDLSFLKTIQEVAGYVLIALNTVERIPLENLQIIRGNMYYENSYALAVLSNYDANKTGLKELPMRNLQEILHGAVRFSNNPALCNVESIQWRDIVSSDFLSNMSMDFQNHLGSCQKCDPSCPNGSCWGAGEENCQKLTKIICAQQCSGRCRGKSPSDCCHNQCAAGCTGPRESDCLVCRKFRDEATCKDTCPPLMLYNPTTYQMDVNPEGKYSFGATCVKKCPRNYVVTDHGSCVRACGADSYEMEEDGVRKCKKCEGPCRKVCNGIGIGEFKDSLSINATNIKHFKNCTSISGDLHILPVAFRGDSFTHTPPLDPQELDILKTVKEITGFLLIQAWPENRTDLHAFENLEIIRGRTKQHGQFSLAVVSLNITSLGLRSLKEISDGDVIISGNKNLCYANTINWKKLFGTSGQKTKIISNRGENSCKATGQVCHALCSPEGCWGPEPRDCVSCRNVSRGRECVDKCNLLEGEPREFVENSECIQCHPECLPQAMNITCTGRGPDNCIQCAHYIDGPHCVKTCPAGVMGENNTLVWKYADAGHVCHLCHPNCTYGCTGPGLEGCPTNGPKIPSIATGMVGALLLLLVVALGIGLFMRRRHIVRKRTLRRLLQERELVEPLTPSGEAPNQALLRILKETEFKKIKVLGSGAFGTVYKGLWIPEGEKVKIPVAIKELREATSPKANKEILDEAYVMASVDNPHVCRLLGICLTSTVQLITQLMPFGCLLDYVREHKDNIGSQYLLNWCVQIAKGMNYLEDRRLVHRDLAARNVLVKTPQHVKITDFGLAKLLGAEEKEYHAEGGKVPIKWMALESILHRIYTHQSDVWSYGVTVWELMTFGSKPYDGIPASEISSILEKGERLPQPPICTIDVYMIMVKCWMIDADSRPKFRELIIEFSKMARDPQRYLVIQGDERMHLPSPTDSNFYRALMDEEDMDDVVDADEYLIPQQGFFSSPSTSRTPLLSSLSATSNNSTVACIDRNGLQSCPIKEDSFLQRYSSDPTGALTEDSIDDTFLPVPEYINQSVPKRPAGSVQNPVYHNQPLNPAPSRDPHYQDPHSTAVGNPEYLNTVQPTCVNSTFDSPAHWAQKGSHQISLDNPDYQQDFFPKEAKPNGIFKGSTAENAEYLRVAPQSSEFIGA

[8] = tested on: mutant EGFRs that possess in-frame insertion mutations in exon 20; details: A763_Y764insFQEA, V769_D770insASV, D770_N771insG, D770_N771insSVD, H773_V774insNPH, H773_V774insPH; cited from earlier work
[9] = Phase 1/2a study, safety and adverse events (CTCAE v5); type: in vivo, human
From the text: (§1) This is a Phase 1/2a, open-label, multicenter, first-in-human trial to evaluate the safety and tolerability, PK, PD, and preliminary efficacy of CLN-081 in patients with non-small cell lung cancer (NSCLC) harboring epidermal growth factor receptor (EGFR) exon 20 insertion mutations.
DLTs will be determined based on the incidence and intensity of AEs related to CLN-081 (excluding toxicities clearly related to disease progression or other inter-current illness) as defined below. Dose escalation decisions will be determined based on DLT that occur during the 21 days after initiation of CLN-081 dosing. AEs meeting the definition of a DLT that are observed after 21 days will be made available to the SRC in case a pattern of late toxicity emerges. Toxicity will be graded by the Common Toxicity Criteria for Adverse Events (CTCAE) v5.0. Patients who experience AEs meeting the criteria for DLT should pause treatment with CLN-081 pending management and resolution of the event, and assessment of the relationship of the AE to CLN-081 administration.
Safety and tolerability will be assessed by the incidence and severity of AEs as determined by CTCAE v5.

[10] = tested on: NSCLC harboring EGFR exon 20 insertion mutations; experiment: Phase 1/2a study, antitumor activity (RECIST v1.1); type: in vivo, human
Experimental: as §1
The antitumor activity of study treatment will be assessed according to RECIST v1.1 guideline
As part of this phase 1/2 study, dose levels including 30, 45, 65, 100 and 150 mg BID were explored during the escalation phases. Efficacy expansions were initiated at 30, 65 and 100 mg BID. A Phase 2a expansion was initiated at 100 mg BID after meeting protocol specified safety and efficacy criteria. Tumor assessments were performed at baseline, after 6 weeks of CLN-081 administration and every 9 weeks thereafter.

[11] = baseline ex19del+T790M or L858R+T790M
[12] = 44/45 patients, all dose levels

**Q.** For C=CC(=O)N[C@H]1C=C(C)c2c(-c3cnc4ccccc4c3)c3c(N)ncnc3n2C1 [Compound 1, (S)—N-(4-amino-6-methyl-5-(quinolin-3-yl)-8,9-dihydropyrimido[5,4-b]indolizin-8-yl)acrylamide], which IC50 [1] is on record?
**A.** 597 nM

**Q.** What about the “inhibitory effect on proliferation” value [2] of the same compound?
**A.** more potent and selective inhibitory effect

**Q.** And the GI50 [3]?
**A.** > 3000 nM

**Q.** And the “potency in inhibiting the phosphorylation of mutant EGFRs” value ([4]; L718Q+ex19del+T790M or L718Q+L858R+T790M)?
**A.** intensive cellular potency

**Q.** And the “absolute activity and selectivity over baseline mutations compared with osimertinib, erlotinib and Afatinib” value [4, 11]?
**A.** higher

**Q.** And the “inhibition of in vitro phosphorylation activity of EGFR and EGFR mutants” value [5]?
**A.** inhibited

**Q.** And the “in vivo inhibitory effect on the phosphorylation of EGFR and its downstream effectors” value ([6]; human lung cancer xenografts harboring EGFR exon 20 insertions)?
**A.** potent and durable in vivo inhibitory effect

**Q.** And the “effect on skin tissue with WT EGFR” value ([6]; in vivo)?
**A.** spares skin tissue with WT EGFR

**Q.** And the “potency in inhibiting the phosphorylation of mutant EGFRs” value ([7]; L792H, L792F, L792Y each with ex19del+T790M or L858R+T790M)?
**A.** intensive cellular potency

**Q.** And the “absolute activity and selectivity over baseline mutations compared with osimertinib, erlotinib and Afatinib” value [7, 11]?
**A.** higher

**Q.** What about the “inhibition against WT EGFR” value (WT EGFR) of the same compound?
**A.** moderate inhibition

**Q.** What about the “potency in inhibiting the phosphorylation of mutant EGFRs” value [8] of the same compound?
**A.** intensive cellular potency

**Q.** What about the “patients with treatment-related discontinuations” value ([9]; 4 patients) of the same compound?
**A.** 9%

**Q.** And the “patients requiring dose reductions” value ([9]; 5 patients)?
**A.** 11%

**Q.** And the “patients who experienced Gr ≥3 TRAEs” value ([9]; 8/45 patients, all dose levels)?
**A.** 18%

**Q.** What about the “patients who experienced grade ≥3 AEs” value ([9]; 20/45 patients, all dose levels) of the same compound?
**A.** 44%

**Q.** What about the “patients who experienced a treatment related adverse event (TRAE), irrespective of grade” value [9, 12] of the same compound?
**A.** 98%

**Q.** And the “patients who experienced an adverse event (AE), irrespective of grade or attribution” value [9, 12]?
**A.** 98%

**Q.** What about the “patients with dose limiting toxicity (DLT)” value ([9]; Gr 3 diarrhea at 150 mg BID, the highest dose cohort, listed as CLN-081) of the same compound?
**A.** One and one

**Q.** And the “Grade ≥3 TRAEs in all patients: Anemia, %” value ([9]; N = 45)?
**A.** 9%

**Q.** And the “Grade ≥3 TRAEs in all patients: Diarrhea, %” value ([9]; N = 45)?
**A.** 2%

**Q.** What about the “Grade ≥3 TRAEs in all patients: Increased ALT, %” value ([9]; N = 45) of the same compound?
**A.** 4%

**Q.** And the “Grade ≥3 TRAEs in all patients: Increased AST, %” value ([9]; N = 45)?
**A.** 4%

**Q.** And the “Grade ≥3 TRAEs in all patients: Increased Amylase, %” value ([9]; N = 45)?
**A.** 2%

**Q.** And the “Grade ≥3 TRAEs in all patients: Neutropenia, %” value ([9]; N = 45)?
**A.** 2%

**Q.** And the “Grade ≥3 TRAEs in all patients: Stomatitis, %” value ([9]; N = 45)?
**A.** 2%

**Q.** What about the “patients with Gr ≥3 treatment-related rash” value ([9]; all dose levels) of the same compound?
**A.** no patients

**Q.** What about the “patients with treatment-related Gr 3 diarrhea” value ([9]; all dose levels) of the same compound?
**A.** one

**Q.** What about the “TRAEs in ≥15% of patients: Anemia, %” value ([9]; any grade, N = 45) of the same compound?
**A.** (18) %

**Q.** What about the “TRAEs in ≥15% of patients: Diarrhea, %” value ([9]; any grade, N = 45) of the same compound?
**A.** (22) %

**Q.** And the “TRAEs in ≥15% of patients: Dry Skin, %” value ([9]; any grade, N = 45)?
**A.** (16) %

**Q.** And the “TRAEs in ≥15% of patients: Increased AST, %” value ([9]; any grade, N = 45)?
**A.** (16) %

**Q.** And the “TRAEs in ≥15% of patients: Nausea, %” value ([9]; any grade, N = 45)?
**A.** (18) %

**Q.** What about the “TRAEs in ≥15% of patients: Paronychia, %” value ([9]; any grade, N = 45) of the same compound?
**A.** (22) %

**Q.** What about the “TRAEs in ≥15% of patients: Rash, %” value ([9]; any grade, N = 45) of the same compound?
**A.** (76) %

**Q.** And the “TRAEs in ≥15% of patients: Stomatitis, %” value ([9]; any grade, N = 45)?
**A.** (18) %

**Q.** What about the “diarrhea compared to historical experience with other EGFR inhibitors” value ([9]; in vivo) of the same compound?
**A.** reduced frequency and severity of diarrhea

**Q.** And the “most common AEs, regardless of attribution or grade” value ([9]; in vivo)?
**A.** rash, anemia and diarrhea

**Q.** And the safety profile ([9]; in vivo)?
**A.** acceptable safety profile

**Q.** What about the “safety profile at efficacious dose levels compared to other TKIs targeting EGFR exon 20 insertion mutations” value ([9]; in vivo) of the same compound?
**A.** superior safety profile

**Q.** What about the “patients who discontinued due to treatment-related Gr 2 pneumonitis” value ([9]; patient had also experienced pneumonitis on osimertinib) of the same compound?
**A.** one

**Q.** And the “Best response PR, %” value ([10]; 30 mg BID (n = 8))?
**A.** 38%

**Q.** What about the “Best response SD, %” value ([10]; 30 mg BID (n = 8)) of the same compound?
**A.** 62%

**Q.** What about the “Confirmed response, %” value ([10]; 30 mg BID (n = 8)) of the same compound?
**A.** 38%

**Q.** And the “Disease Control Rate (PR + SD ≥ 6 mo), %” value ([10]; 30 mg BID (n = 8))?
**A.** 62%

**Q.** And the “Best response SD, %” value ([10]; 45 mg BID (n = 1))?
**A.** 100%

**Q.** What about the “Best response PD, %” value ([10]; 65 mg BID (n = 14)) of the same compound?
**A.** (7) %

**Q.** And the “Best response PR, %” value ([10]; 65 mg BID (n = 14))?
**A.** (50) %

**Q.** What about the “Best response SD, %” value ([10]; 65 mg BID (n = 14)) of the same compound?
**A.** (43) %

**Q.** What about the “Confirmed response, %” value ([10]; 65 mg BID (n = 14)) of the same compound?
**A.** (14) %

**Q.** What about the “Disease Control Rate (PR + SD ≥ 6 mo), %” value ([10]; 65 mg BID (n = 14)) of the same compound?
**A.** (57) %

**Q.** And the “Pending confirmation, %” value ([10]; 65 mg BID (n = 14))?
**A.** (21) %

**Q.** What about the “Unconfirmed response, %” value ([10]; 65 mg BID (n = 14)) of the same compound?
**A.** (14) %

**Q.** And the “Best response PR, %” value ([10]; 100 mg BID (n = 13))?
**A.** (54) %

**Q.** And the “Best response SD, %” value ([10]; 100 mg BID (n = 13))?
**A.** (46) %

**Q.** What about the “Confirmed response, %” value ([10]; 100 mg BID (n = 13)) of the same compound?
**A.** (46) %

**Q.** And the “Disease Control Rate (PR + SD ≥ 6 mo), %” value ([10]; 100 mg BID (n = 13))?
**A.** (69) %

**Q.** What about the “Unconfirmed response, %” value ([10]; 100 mg BID (n = 13)) of the same compound?
**A.** (8) %

**Q.** And the “evaluable patients who achieved a PR” value ([10]; 100 mg BID, 7/13, 6 confirmed and 1 unconfirmed)?
**A.** 54%

**Q.** What about the “Best response PR, %” value ([10]; 150 mg BID (n = 6)) of the same compound?
**A.** 67%

**Q.** What about the “Best response SD, %” value ([10]; 150 mg BID (n = 6)) of the same compound?
**A.** 33%

**Q.** And the “Confirmed response, %” value ([10]; 150 mg BID (n = 6))?
**A.** 33%

**Q.** And the “Disease Control Rate (PR + SD ≥ 6 mo), %” value ([10]; 150 mg BID (n = 6))?
**A.** 83%

**Q.** And the “Pending confirmation, %” value ([10]; 150 mg BID (n = 6))?
**A.** 33%

**Q.** What about the “objective responses (all partial responses)” value ([10]; 21 of 42 evaluable patients across dose levels) of the same compound?
**A.** 50%

**Q.** And the “response-evaluable patients who remained on treatment at the data cut-off” value ([10]; 22/42 across dose levels)?
**A.** 52%

**Q.** What about the “Disease control (PR or SD ≥6 months)” value ([10]; 27/42 across all doses) of the same compound?
**A.** 64%

**Q.** What about the “patients with stable disease (SD) or PR as the best response” value ([10]; 41/42 across dose levels) of the same compound?
**A.** 98%

**Q.** And the “patients with disease progression as the best response” value ([10]; across dose levels)?
**A.** one

**Q.** And the antitumor activity ([10]; heavily-pretreated patients, across EGFR Ins 20 variants and dose levels)?
**A.** encouraging antitumor activity

**Q.** What about the “dose cohorts in which partial responses were registered” value ([10]; in vivo) of the same compound?
**A.** all dose cohorts tested so far

**Q.** What about the “lowest dose cohort at which partial response was reported” value ([10]; in vivo) of the same compound?
**A.** 30 mg BID

**Q.** What about the “unconfirmed objective responses, patients” value ([10]; of 21 responders, including 5 pending a confirmatory scan) of the same compound?
**A.** 8

**Q.** What about the “confirmed objective responses, patients” value ([10]; of the 21 patients achieving an objective response) of the same compound?
**A.** 13

**Q.** What about the “response in patients previously treated with poziotinib and TAK788 (mobocertinib)” value ([10]; some patients) of the same compound?
**A.** partial responses
